Several values for one entry are separate records, joined by “and”; a condition that tells them apart may be missing. Identical values can stand only once. Entries after “also recorded” stand apart in the source; their conditions may differ.
Legend:
[1] = test system: HeLa cells; assay: Quantification of centrosome numbers from fixed samples, HeLa; format: cell-based, human; settings: HeLa, 50 or 100 nM
Description: Quantification of centrosome numbers from fixed samples. Cells were seeded onto poly-D-lysine-coated coverslips (Neuvitro) in 12-well plates at least 8 hours before fixation. At the required timepoints for each experiment, cells were washed once with PBS and fixed in 100% methanol (−20° C., 5 minutes). Fixed cells were washed with PBS, blocked with PBS+4% BSA+0.1% Triton X-100, and stained with primary antibodies against γ-tubulin and Cep192, which localize to the pericentriolar material and proximal to the outer centriole wall, respectively (47, 48). Alexa488-labeled anti-mouse secondary antibody (against anti-γ-tubulin) and Alexa647-labeled anti-rabbit secondary antibody (against anti-Cep192) were both used at 1.5 jag/mL. Samples were mounted onto slides with Prolong Gold antifade reagent (Life Technologies). Images of fixed interphase cells were acquired on a Nikon Eclipse E800 with a 60×1.4 NA PlanApo objective and ORCA-ER camera (Hamamatsu) using Metamorph software (Molecular Devices). Quantification of foci was performed manually. A focus was defined as a bona-fide centrosome if it was positive for both γ-tubulin and Cep192 (true for >95% of foci).

[2] = test system: full-length mouse Plk4-YFP; assay: Plk4 stabilization assay, Plk4-YFP DLD-1 cells; format: cell-based, human; settings: 250 nM, 24 hours
Description: Plk4 stabilization assay. Expression was induced in Plk4-YFP DLD-1 cells using 1 μg/ml doxycycline. At the same time, cells were treated with the indicated concentrations of compounds. Cells were incubated for 24 hours before harvesting for Western blotting (see below).
Western blotting. […] Cell extracts were stored at −80° C. until use.

[3] = target: T1, human Plk4 kinase domain (aa 2-275) (Homo sapiens, UniProt O00444); assay: Plk4 kinase assay (ADP-Glo); format: biochemical
T1 construct: purified 6×His-tagged human Plk4 kinase domain (aa 2-275); 6xHis; made in house; host or cells: E. coli
T1 sequence (O00444 2-275): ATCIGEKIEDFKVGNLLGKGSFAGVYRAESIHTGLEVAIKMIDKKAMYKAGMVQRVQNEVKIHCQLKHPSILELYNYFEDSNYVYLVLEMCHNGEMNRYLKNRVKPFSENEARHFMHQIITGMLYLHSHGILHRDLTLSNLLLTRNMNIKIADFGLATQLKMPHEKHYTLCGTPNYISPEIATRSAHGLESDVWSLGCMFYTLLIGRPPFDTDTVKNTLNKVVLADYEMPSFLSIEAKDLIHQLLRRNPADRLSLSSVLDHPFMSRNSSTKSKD
In short: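 Enzyme at 2.5-10 nM final, pH 8.0, reacted 4-16 hours at 25° C; ADP generation read by ADP-Glo luminescence. Ki derived from IC50 by Cheng-Prusoff or, for tight binders, Copeland formalism.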

[4] = target: T2, inhibitor-resistant mutant Plk4 (G95L) (Homo sapiens, UniProt O00444, G95L); assay: Plk4 (G95L) mutant kinase assay; format: biochemical
T2 construct: Plk4 assays used equal volumes of: (1) purified 6×His-tagged human Plk4 kinase domain (aa 2-275); 6xHis; made in house; host or cells: E. coli
Description: Kinase assays. […] Reactions were allowed to proceed for 4-16 hours at 25° C. Detection was performed using ADP-Glo reagent (Promega), following manufacturer's instructions. Luminescence was measured on an Infinite M1000 plate reader (Tecan). Data were fit using Prism (GraphPad) and Kis were calculated from IC50 data using the Cheng and Prusoff equation (37) or the Copeland formalism for tight-binding inhibitors (38).

[5] = target: T3, human Aurora A (Homo sapiens, UniProt O14965); assay: Aurora A kinase assay (ADP-Glo); format: biochemical
T3 construct: purchased Millipore
T3 sequence (O14965 1-403): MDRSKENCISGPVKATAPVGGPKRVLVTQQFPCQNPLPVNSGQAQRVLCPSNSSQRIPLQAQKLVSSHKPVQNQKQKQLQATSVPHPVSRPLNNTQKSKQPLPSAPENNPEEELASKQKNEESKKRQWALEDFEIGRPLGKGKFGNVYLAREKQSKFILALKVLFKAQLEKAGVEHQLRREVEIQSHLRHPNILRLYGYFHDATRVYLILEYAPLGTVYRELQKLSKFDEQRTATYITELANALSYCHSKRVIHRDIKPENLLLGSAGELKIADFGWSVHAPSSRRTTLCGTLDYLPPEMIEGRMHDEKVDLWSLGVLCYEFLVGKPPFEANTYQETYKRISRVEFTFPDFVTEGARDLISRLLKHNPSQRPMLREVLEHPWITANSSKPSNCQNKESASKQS
Description: LRRASLG)+inhibitors arrayed in dose response (added as described above). […] Detection, measurement and data analysis were performed as described above.

[6] = target: T4, Aurora B (Homo sapiens, UniProt Q96GD4); assay: Aurora B radiometric kinase assay (Reaction Biology); format: biochemical
T4 construct: Reaction Biology (Malvern, Pa.), contract assay
Description: Aurora B and other radiometric kinase assays were performed by Reaction Biology (Malvern, Pa.).

[7] = target: T5, TNK1 (Homo sapiens, UniProt Q13470); assay: Radiometric kinase assay, off-target TNK1; format: biochemical
T5 construct: Reaction Biology (Malvern, Pa.), contract assay
T5 sequence (Q13470 1-666): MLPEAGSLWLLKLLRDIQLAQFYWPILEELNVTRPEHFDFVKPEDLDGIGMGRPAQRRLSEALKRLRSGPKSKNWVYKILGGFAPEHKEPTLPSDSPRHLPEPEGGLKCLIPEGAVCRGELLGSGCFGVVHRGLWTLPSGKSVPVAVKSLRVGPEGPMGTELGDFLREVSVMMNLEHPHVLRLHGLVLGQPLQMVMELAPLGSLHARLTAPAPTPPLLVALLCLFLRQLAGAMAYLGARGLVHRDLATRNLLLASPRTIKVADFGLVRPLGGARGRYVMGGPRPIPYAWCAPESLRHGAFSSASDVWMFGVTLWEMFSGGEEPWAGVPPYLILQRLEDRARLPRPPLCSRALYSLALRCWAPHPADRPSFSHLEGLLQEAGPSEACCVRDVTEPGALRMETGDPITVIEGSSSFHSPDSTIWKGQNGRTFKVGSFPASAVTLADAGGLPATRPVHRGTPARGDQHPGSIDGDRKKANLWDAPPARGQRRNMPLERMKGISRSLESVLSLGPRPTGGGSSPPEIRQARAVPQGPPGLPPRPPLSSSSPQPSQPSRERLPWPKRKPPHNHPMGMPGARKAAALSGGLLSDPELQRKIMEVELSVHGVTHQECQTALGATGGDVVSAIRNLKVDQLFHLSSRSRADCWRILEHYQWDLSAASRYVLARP
Description: (§1) Aurora B and other radiometric kinase assays were performed by Reaction Biology (Malvern, Pa.). Kinome profiling of centrinone and centrinone-B was performed by DiscoveRx (San Diego, Calif.).

[8] = target: T6, LRRK2 (Homo sapiens, UniProt Q5S007); assay: Radiometric kinase assay, off-target LRRK2; format: biochemical
T6 construct: Reaction Biology (Malvern, Pa.), contract assay
Description: as §1

[9] = target: ROS/ROS1 (Homo sapiens, UniProt P08922); assay: Radiometric kinase assay, off-target ROS/ROS1; format: biochemical
Description: as §1

[10] = target: FLT4/VEGFR3 (Homo sapiens, UniProt P35916); assay: Radiometric kinase assay, off-target FLT4/VEGFR3; format: biochemical
Description: as §1

[11] = target: T7, RET (Homo sapiens, UniProt P07949); assay: Radiometric kinase assay, off-target RET; format: biochemical
T7 construct: Reaction Biology (Malvern, Pa.), contract assay
Description: as §1

[12] = target: T8, JAK2 (Homo sapiens, UniProt O60674); assay: Radiometric kinase assay, off-target JAK2; format: biochemical
T8 construct: Reaction Biology (Malvern, Pa.), contract assay
Description: as §1

[13] = target: T9, SRPK1 (Homo sapiens, UniProt Q96SB4); assay: Radiometric kinase assay, off-target SRPK1; format: biochemical
T9 construct: Reaction Biology (Malvern, Pa.), contract assay
Description: as §1

[14] = test system: centrosomes in cells; assay: Cellular centrosome depletion (cell line not stated); format: cell-based; settings: cellular activity, FIG. 1A
Description: Centriole depletion assay for compound screening. 1,500 NIH/3T3 cells or 3,500 HCT116 cells were seeded into 96-well SCREENSTAR microplates (Greiner) and treated with inhibitors in dose response, added from DMSO stocks. After 3 days, cells were fixed directly in the wells with 100% methanol (−20° C., 10 minutes). The fixed cells were washed with PBS and stained with primary antibodies against γ-tubulin and, for a subset of compounds, Cep192. Cells were then stained with Alexa-488 donkey anti-mouse and Alexa-647 goat anti-rabbit secondary antibodies. Cells were imaged using either a Model 500 LumaScope (Etaluma) or an EVOS FL (Advanced Microscopy Group/Life Technologies), and centriole depletion was determined by scoring the percentage of cells without visible γ-tubulin/Cep192 foci.

[15] = test system: RPE1 cells; assay: Analysis of mitosis and daughter cell fate, RPE1; format: cell-based, human; settings: RPE1, only mitotic events with clear missegregation, FIG. 18B
Description: Analysis of mitosis and daughter cell fate. […] Cells were seeded into 96-well cycloolefin plates at 5000 cells/well, 8-10 hours before imaging. Movies were acquired on the CV1000 with a 40×0.95 NA U-PlanApo objective. The imaging chamber was maintained at 37° C. and 5% CO2. Image acquisition and data analysis were performed using CellVoyager software. 20 fields/well were imaged. For HeLa and NIH/3T3 cells, 5×2 μm z-sections in the GFP (25% power, 125 ms, 30% gain) and RFP (25% power, 100 ms, 30% gain) channels were captured in each field, at 5-minute intervals for 24 hours. For RPE1 cells, 5×2 μm z-sections in the GFP (20% power, 100 ms, 30% gain) and RFP (25% power, 100 ms, 30% gain) channels were captured in each field, at 5-minute intervals for 8 hours. To track RPE1 daughter cell fate, imaging was then switched to 3×4 μm z-sections in the RFP channel only, at 10-minute intervals for 48 hours. Mitosis was measured from nuclear envelope breakdown to anaphase onset (or arrest). Results represent combined measurements of 100 mother cells per condition from 2-4 independent experiments.
To study the correlation between mother cell prometaphase duration and daughter cell fate, RPE1 cells co-expressing centrin-GFP and H2B-RFP were seeded into 96-well cycloolefin plates at 5000 cells/well, 8-10 hours before imaging. Cells were treated with 80 nM nocodazole and immediately imaged on the CV1000 system with a 40×0.95 NA U-PlanApo objective. The imaging chamber was maintained at 37° C. and 5% CO2. 20 fields/well were imaged. 5×2 Lm z-sections in the GFP (20% power, 100 ms, 30% gain) and RFP (25% power, 100 ms, 30% gain) channels were captured in each field, at 5-minute intervals for 6 hours. The plate was then removed from the microscope, and wells were washed 6 times with warm medium. The plate was returned to the microscope, and imaging was resumed, capturing 3×4 Lm z-sections in the RFP channel only, at 10-minute intervals for 50 hours. To study the effect of chromosome missegregation on daughter cell fate, cells were treated with 1 LM NMS-P715 to inhibit the spindle assembly checkpoint kinase Mps1, then imaged as described above. Only mitotic events with clear missegregation (lagging chromosomes and subsequent formation of daughter cells with micronuclei) were analyzed. For both experiments, results represent combined measurements of 100 mother cells from 2 independent experiments.

[16] = test system: p38; settings: RPE1, osmotic stress
Description: MAPKAPK-2 activation assay. RPE1 cells on 10 cm plates were treated with DMSO or 10 μM SB203580 for 2 hours prior to induction of stress.
Western blotting. Asynchronously growing cells from 10 cm plates were harvested at 50-80% confluence and lysed by sonication in RIPA buffer+protease and phosphatase inhibitor cocktail (Thermo Scientific). Cell extracts were stored at −80° C. until use. Before use, concentrations of extracts were normalized using a Bio-Rad Protein Assay (Bio-Rad). For every sample, 25-50 μg protein/lane was run on Mini-PROTEAN gels (Bio-Rad), and transferred to PVDF membranes using a TransBlot Turbo system (Bio-Rad).

[17] = off-target from DiscoveRx kinome profiling

T9 sequence (Q96SB4 whole entry): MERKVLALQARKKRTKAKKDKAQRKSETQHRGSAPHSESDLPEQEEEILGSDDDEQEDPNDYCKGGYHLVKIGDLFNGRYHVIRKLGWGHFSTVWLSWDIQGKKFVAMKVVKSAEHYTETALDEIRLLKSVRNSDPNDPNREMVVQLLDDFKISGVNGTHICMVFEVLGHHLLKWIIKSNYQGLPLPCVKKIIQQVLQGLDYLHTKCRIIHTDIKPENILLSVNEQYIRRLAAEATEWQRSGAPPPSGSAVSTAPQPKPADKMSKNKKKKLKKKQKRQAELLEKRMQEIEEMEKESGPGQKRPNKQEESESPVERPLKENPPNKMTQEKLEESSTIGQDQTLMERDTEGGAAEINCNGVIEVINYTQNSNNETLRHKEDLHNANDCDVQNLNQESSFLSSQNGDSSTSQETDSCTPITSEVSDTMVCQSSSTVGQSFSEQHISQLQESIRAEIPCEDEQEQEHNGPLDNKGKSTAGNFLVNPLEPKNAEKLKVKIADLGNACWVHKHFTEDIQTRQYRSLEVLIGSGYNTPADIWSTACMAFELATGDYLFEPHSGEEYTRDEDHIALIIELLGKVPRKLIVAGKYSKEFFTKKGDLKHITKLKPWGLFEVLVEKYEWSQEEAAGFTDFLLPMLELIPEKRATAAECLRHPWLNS
T7 sequence (P07949 29-1114): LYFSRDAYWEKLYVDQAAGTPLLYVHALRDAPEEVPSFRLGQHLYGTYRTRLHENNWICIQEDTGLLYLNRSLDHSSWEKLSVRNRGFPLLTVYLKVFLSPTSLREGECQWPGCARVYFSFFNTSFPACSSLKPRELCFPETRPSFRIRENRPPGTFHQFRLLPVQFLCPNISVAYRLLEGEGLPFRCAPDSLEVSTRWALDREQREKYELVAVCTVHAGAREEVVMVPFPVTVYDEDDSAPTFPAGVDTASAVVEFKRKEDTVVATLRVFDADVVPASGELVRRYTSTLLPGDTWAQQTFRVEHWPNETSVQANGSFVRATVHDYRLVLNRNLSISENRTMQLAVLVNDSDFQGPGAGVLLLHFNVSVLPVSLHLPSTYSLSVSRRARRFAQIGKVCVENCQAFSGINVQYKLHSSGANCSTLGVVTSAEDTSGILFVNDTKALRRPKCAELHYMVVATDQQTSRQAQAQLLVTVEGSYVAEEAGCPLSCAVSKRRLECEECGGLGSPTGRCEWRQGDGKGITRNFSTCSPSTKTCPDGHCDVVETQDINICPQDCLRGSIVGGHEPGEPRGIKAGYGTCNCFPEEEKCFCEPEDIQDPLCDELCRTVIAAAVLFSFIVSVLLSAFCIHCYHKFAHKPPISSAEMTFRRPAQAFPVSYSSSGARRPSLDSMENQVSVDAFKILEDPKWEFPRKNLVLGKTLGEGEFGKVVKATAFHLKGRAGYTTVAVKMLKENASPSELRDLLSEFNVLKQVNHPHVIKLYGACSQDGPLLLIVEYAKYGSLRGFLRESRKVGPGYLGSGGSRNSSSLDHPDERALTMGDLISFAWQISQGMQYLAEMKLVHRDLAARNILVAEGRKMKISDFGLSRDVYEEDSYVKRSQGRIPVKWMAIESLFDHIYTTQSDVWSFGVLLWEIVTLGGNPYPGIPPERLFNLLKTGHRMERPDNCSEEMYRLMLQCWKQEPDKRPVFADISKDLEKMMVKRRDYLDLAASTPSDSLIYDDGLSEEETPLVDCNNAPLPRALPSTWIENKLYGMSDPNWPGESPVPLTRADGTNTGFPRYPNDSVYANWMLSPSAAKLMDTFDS
T4 sequence (Q96GD4 whole entry): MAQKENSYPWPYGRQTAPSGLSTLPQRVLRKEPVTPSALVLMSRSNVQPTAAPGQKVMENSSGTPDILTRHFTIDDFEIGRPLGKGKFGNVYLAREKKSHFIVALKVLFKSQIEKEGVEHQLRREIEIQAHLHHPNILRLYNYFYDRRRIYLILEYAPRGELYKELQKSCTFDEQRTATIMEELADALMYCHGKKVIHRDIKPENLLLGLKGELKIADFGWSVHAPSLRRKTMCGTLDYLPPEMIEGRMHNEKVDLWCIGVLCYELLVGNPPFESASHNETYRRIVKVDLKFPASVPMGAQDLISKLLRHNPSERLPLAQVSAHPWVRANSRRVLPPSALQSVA
T6 sequence (Q5S007 whole entry): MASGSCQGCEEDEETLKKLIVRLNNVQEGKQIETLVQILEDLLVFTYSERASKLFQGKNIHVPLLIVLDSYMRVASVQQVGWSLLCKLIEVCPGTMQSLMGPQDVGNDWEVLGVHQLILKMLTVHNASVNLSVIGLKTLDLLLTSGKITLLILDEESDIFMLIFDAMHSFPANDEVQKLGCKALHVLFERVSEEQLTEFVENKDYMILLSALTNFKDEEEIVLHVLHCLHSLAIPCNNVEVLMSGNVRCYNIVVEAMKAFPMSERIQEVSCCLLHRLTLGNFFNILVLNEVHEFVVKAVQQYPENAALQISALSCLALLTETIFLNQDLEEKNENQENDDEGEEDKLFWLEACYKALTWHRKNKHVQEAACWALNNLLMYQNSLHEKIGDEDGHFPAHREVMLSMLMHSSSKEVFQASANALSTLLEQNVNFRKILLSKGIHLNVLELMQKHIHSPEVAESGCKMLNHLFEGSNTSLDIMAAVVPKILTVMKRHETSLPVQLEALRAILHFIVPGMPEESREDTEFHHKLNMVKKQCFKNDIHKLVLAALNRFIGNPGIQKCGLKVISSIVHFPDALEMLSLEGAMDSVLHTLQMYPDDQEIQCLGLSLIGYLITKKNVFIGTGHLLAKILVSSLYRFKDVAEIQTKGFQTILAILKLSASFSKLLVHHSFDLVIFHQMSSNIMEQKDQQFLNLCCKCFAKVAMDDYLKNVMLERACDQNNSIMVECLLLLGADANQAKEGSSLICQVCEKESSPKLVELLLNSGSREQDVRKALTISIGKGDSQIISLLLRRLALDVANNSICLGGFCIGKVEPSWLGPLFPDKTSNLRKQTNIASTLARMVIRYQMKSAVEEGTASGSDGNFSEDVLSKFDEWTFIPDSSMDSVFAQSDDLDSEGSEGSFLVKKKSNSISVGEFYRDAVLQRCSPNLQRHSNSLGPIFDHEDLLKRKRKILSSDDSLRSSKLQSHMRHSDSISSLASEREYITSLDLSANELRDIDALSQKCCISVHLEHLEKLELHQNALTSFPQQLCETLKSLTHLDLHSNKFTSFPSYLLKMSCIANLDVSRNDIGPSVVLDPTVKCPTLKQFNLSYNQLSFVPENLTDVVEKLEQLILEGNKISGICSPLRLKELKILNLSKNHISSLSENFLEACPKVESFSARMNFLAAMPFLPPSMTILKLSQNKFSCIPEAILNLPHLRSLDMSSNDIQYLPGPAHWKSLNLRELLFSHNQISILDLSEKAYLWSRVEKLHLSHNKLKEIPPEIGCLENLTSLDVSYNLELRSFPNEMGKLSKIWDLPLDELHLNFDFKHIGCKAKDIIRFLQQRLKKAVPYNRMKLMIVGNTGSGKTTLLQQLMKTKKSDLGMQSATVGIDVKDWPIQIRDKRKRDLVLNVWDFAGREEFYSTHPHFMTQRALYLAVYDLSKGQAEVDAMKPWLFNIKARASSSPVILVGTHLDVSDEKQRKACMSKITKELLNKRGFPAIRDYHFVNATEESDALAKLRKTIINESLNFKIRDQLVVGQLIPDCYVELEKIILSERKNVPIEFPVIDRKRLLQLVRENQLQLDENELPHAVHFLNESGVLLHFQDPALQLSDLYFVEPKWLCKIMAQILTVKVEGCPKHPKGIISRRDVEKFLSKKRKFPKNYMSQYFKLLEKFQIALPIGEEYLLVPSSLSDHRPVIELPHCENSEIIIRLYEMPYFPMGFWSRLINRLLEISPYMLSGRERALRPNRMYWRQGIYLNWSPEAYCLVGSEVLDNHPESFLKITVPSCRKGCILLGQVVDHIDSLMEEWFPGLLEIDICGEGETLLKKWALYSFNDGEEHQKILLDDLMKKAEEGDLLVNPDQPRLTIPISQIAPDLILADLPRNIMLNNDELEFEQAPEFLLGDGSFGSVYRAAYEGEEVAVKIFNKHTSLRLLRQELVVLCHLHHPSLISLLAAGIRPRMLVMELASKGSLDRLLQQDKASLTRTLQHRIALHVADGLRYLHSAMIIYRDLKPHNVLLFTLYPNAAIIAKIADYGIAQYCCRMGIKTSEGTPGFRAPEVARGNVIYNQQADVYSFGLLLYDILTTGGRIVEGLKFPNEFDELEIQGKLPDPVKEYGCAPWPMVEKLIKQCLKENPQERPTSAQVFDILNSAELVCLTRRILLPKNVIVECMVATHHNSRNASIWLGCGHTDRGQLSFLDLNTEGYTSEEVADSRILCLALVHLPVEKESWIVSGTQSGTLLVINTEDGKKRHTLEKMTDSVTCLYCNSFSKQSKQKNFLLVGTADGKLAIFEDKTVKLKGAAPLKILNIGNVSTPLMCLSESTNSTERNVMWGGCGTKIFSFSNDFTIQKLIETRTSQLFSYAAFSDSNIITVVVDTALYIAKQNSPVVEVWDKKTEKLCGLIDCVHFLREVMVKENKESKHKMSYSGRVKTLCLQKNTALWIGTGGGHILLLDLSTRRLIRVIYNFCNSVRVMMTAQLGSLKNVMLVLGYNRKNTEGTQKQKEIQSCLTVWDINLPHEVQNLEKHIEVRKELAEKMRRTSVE
T2 sequence (O00444 2-275 G95L): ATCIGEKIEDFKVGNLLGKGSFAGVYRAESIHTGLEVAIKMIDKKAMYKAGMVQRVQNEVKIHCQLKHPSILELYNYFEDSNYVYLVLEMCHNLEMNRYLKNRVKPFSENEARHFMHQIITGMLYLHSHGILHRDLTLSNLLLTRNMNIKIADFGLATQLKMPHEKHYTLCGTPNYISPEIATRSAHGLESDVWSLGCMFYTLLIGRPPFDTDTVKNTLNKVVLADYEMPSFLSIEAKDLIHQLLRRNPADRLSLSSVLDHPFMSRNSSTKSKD

COc1ccc2c(c1)[C@]1(C[C@H]1c1ccc3c(/C=C/c4ccc(CN5C[C@@H](C)O[C@@H](C)C5)cc4)n[nH]c3c1)C(=O)N2 (relative stereo) [CFI-400945, (1R,2S).2-(3-((E).4-(((cis).2,6-dimethylmorpholino)methyl)styryl). 1H.indazol-6-yl)-5′-methoxyspiro[cyclopropane-1,3′-indolin]-2′-one, reference compound]
nuclear morphology and division [1]: become grossly multinuclear | effect on centrosome number ([1]; 3 days): causes centrosome amplification; also recorded: does not deplete centrioles from cells; also recorded: induces centrosome amplification | Plk4-YFP stabilization [2]: only slight Plk4-YFP stabilization

COc1c(Nc2cc(C)[nH]n2)nc(Sc2ccc(S(=O)(=O)Cc3cccc([N+](=O)[O-])c3F)cc2F)nc1N1CCCCC1 [Centrinone-B, 2-((2-fluoro-4-((2-fluoro-3-nitrobenzyl)sulfonyl)phenyl)thio)-5-methoxy-N-(5-methyl-1H-pyrazol-3-yl)-6-(piperidin-1-yl)pyrimidin-4-amine]
Ki [3]: 0.6 nM and 0.59 nM | Ki [4]: 498 nM | Plk4 selectivity, Ki(Plk4 G95L)/Ki(Plk4) [4]: 847 | Ki [5]: 1240 nM | Plk4 selectivity, Ki(Aurora A)/Ki(Plk4) [5]: 2108 | Ki [6]: 5600 nM | Plk4 selectivity, Ki(Aurora B)/Ki(Plk4) [6]: 9523 | Plk4 selectivity, Ki(TNK1)/Ki(Plk4) [7]: 10 | Ki [7, 17]: 6.04 nM | Plk4 selectivity, Ki(LRRK2)/Ki(Plk4) [8]: 13 | Ki [8, 17]: 7.66 nM | Plk4 selectivity, Ki(ROS/ROS1)/Ki(Plk4) [9]: 153 | Ki [9, 17]: 90.1 nM | Plk4 selectivity, Ki(FLT4/VEGFR3)/Ki(Plk4) [10]: 99 | Ki [10, 17]: 58 nM | Plk4 selectivity, Ki(RET)/Ki(Plk4) [11]: 332 | Ki [11, 17]: 195 nM | Plk4 selectivity, Ki(JAK2)/Ki(Plk4) [12]: >847 | Ki [12, 17]: > 500 nM | Plk4 selectivity, Ki(SRPK1)/Ki(Plk4) [13]: >847 | Ki [13, 17]: > 500 nM | centrosome depletion at [14]: 500 nM

CCc1cccc(CC)c1NC(=O)c1nn(C)c2c1CCc1cnc(Nc3ccc(C(=O)NC4CCN(C)CC4)cc3OC(F)(F)F)nc1-2 [NMS-P715]
percentage of daughters not dividing within 48 hours [15]: 11.4%

C[S+]([O-])c1ccc(-c2nc(-c3ccncc3)c(-c3ccc(F)cc3)[nH]2)cc1 (stereo not drawn) [SB203580]
phosphorylation of MAPKAPK-2 by p38 [16]: blocks phosphorylation of MAPKAPK-2

— patent US10752612B2, “PLK4 inhibitors” (LUDWIG INSTITUTE FOR CANCER RESEARCH LTD, priority 2015, dated 2020)
